From ChEMBL document CHEMBL4017441, “Mitigating the inhibition of human bile salt export pump by drugs: opportunities provided by physicochemical property modulation, in silico modeling, and structural modification” (Drug Metab Dispos, 2012)
Where a name gives a salt, the structure may show the parent alone.

Molecular target: Bile salt export pump (Homo sapiens, UniProt O95342)
Format: ADME

Structure (SMILES) | IC50 [µM]
CC(=O)O[C@H]1C[C@@]2(C)[C@@H](C[C@@H](O)[C@H]3[C@@]4(C)CC[C@@H](O)[C@@H](C)[C@@H]4CC[C@@]32C)/C1=C(\CCC=C(C)C)C(=O)O [FUSIDATE SODIUM] | < 10
NCC1(CC(=O)O)CCCCC1 [GABAPENTIN] | > 1000
CO/N=C1\CN(c2nc3c(cc2F)c(=O)c(C(=O)O)cn3C2CC2)CC1CN (stereo not given) [GEMIFLOXACIN] | > 1000
O=C(OCC(O)CO)c1ccccc1Nc1ccnc2cc(Cl)ccc12 (stereo not given) [GLAFENINE] | < 14.9
Cc1ccc(S(=O)(=O)NC(=O)NN2CC3CCCC3C2)cc1 (stereo not given) [GLICLAZIDE] | 591
CCC1=C(C)CN(C(=O)NCCc2ccc(S(=O)(=O)NC(=O)N[C@H]3CC[C@H](C)CC3)cc2)C1=O [GLIMEPIRIDE] | < 10
COc1ccccc1O [GUAIACOL] | > 1000
N=C(N)N/N=C/c1c(Cl)cccc1Cl [GUANABENZ] | 344
N=C(N)NCCN1CCCCCCC1 [GUANETHIDINE] | > 1000
CC1(C)O[C@@H]2C[C@H]3[C@@H]4CCC5=CC(=O)CC[C@]5(C)[C@@]4(F)[C@@H](O)C[C@]3(C)[C@]2(C(=O)CCl)O1 [HALCINONIDE] | < 10
CC(=O)NCCCCCCNC(C)=O [HEXAMETHYLENEBISACETAMIDE] | > 1000
Oc1ccc(C(O)CNCCCCCCNCC(O)c2ccc(O)c(O)c2)cc1O (stereo not given) [HEXOPRENALINE] | > 1000
CC(CNC1CCCCC1)OC(=O)c1ccccc1 (stereo not given) [HEXYLCAINE HYDROCHLORIDE] | 506
NCCc1c[nH]cn1 [HISTAMINE] | > 1000
CCN(CC)CCNc1ccc(CO)c2sc3ccccc3c(=O)c12 [HYCANTHONE] | 29.8
NNc1nncc2ccccc12 [HYDRALAZINE] | > 1000
C[C@]12CCC(=O)C=C1CC[C@@H]1[C@@H]2[C@@H](O)C[C@@]2(C)[C@H]1CC[C@]2(O)C(=O)CO [HYDROCORTISONE] | 252
NS(=O)(=O)c1cc2c(cc1C(F)(F)F)NCNS2(=O)=O [HYDROFLUMETHIAZIDE] | > 1000
OCCOCCN1CCN(C(c2ccccc2)c2ccc(Cl)cc2)CC1 (stereo not given) [HYDROXYZINE] | 72.9
CC(C)Cc1ccc(C(C)C(=O)O)cc1 (stereo not given) [IBUPROFEN] | > 789
Cc1ccc(NC(=O)c2ccc(CN3CCN(C)CC3)cc2)cc1Nc1nccc(-c2cccnc2)n1 [IMATINIB] | < 10
CCn1ccnc1CC1COc2ccccc2O1 (stereo not given) [IMILOXAN] | 61.7
C[C@@H](O)[C@H]1C(=O)N2C(C(=O)O)=C(SCCN=CN)C[C@H]12 [IMIPENEM ANHYDROUS] | > 1000
Nc1cc(-c2ccncc2)c[nH]c1=O [INAMRINONE] | 371

Structure (SMILES) | IC50 [µM]
c1ccc2c(CCC3CCNCC3)c[nH]c2c1 [INDALPINE] | > 1000
CC1Cc2ccccc2N1NC(=O)c1ccc(Cl)c(S(N)(=O)=O)c1 (stereo not given) [INDAPAMIDE] | 145
O=C(NC1CCN(CCc2c[nH]c3ccccc23)CC1)c1ccccc1 [INDORAMIN] | 109
Oc1c(I)cc(I)c2cccnc12 [IODOQUINOL] | > 1000
CC(C)NNC(=O)c1ccncc1 [IPRONIAZID] | > 953
O=C1c2ccccc2S(=O)(=O)N1CCCCN1CCN(c2ncccn2)CC1 [IPSAPIRONE] | 31.2
CCC(NC(C)C)C(O)c1ccc(O)c(O)c1 (stereo not given) [ISOETHARINE] | > 1000
CC(C)NCC(O)c1ccc(O)c(O)c1 (stereo not given) [ISOPROTERENOL] | > 986
CC(COc1ccccc1)NC(C)C(O)c1ccc(O)cc1 (stereo not given) [ISOXSUPRINE] | 573
CN1CCC(=C2c3ccccc3CC(=O)c3sccc32)CC1 [KETOTIFEN] | > 429
CC(CCc1ccccc1)NCC(O)c1ccc(O)c(C(N)=O)c1 (stereo not given) [LABETALOL] | 649
OC[C@@H](O)[C@@H](O[C@@H]1O[C@H](CO)[C@H](O)[C@H](O)[C@H]1O)[C@H](O)[C@@H](O)CO [LACTITOL] | > 1000
CS(=O)(=O)CCNCc1ccc(-c2ccc3ncnc(Nc4ccc(OCc5cccc(F)c5)c(Cl)c4)c3c2)o1 [LAPATINIB] | < 10
Cc1ccc2c(c1)c1c(n2CCc2ccc(C)nc2)CCN(C)C1 [LATREPIRDINE] | 136
C[C@H](CN(C(=O)c1ccc(C#N)cc1)c1ccccn1)N1CCN(c2cccc3c2OCCO3)CC1 [LECOZOTAN] | < 10
Cc1oncc1C(=O)Nc1ccc(C(F)(F)F)cc1 [LEFLUNOMIDE] | 110
N#Cc1ccc(C(c2ccc(C#N)cc2)n2cncn2)cc1 [LETROZOLE] | 225
Nc1nc2c(c(=O)[nH]1)N(C=O)C(CNc1ccc(C(=O)N[C@@H](CCC(=O)O)C(=O)O)cc1)CN2 (stereo not given in full) [LEUCOVORIN] | > 1000
c1ccc([C@H]2CN3CCSC3=N2)cc1 [LEVAMISOLE] | > 1000
CC1(C)Oc2ccc(C#N)cc2[C@@H](N2CCCC2=O)[C@@H]1O [LEVCROMAKALIM] | 353
COc1ccc2c(c1)N(C[C@H](C)CN(C)C)c1ccccc1S2 [LEVOMEPROMAZINE] | 127
CN=C(N)NC(=O)Nc1c(C)cccc1C [LIDAMIDINE] | > 1000
Cc1nc(C)c(C)nc1C [LIGUSTRAZINE] | > 1000
Cc1cccc(C)c1CNc1cc(C(=O)NCCO)cn2c(C)c(C)nc12 [LINAPRAZAN] | < 10

Structure (SMILES) | IC50 [µM]
CC(=O)NC[C@H]1CN(c2ccc(N3CCOCC3)c(F)c2)C(=O)O1 [LINEZOLID] | > 1000
O=C(O)CCCCC1CCSS1 (stereo not drawn) [LIPOIC ACID, ALPHA] | > 1000
COc1c(OC)c(OC(C)=O)c2cc(Cl)ccc2c1OC(C)=O [LONAPALENE] | 14.4
CCCCc1nc(Cl)c(CO)n1Cc1ccc(-c2ccccc2-c2nn[nH]n2)cc1 [LOSARTAN] | < 10
Cc1ccc(Cl)c(Nc2ccccc2C(=O)O)c1Cl [MECLOFENAMIC ACID] | 27.2
CC(=O)O[C@]1(C(C)=O)CC[C@H]2[C@@H]3C=C(C)C4=CC(=O)CC[C@]4(C)[C@H]3CC[C@@]21C [MEGESTROL ACETATE] | < 10
CC12CC3CC(C)(C1)CC(N)(C3)C2 [MEMANTINE] | > 1000
C[N+]1(C)CCCC(OC(=O)C(O)(c2ccccc2)c2ccccc2)C1 (stereo not given) [MEPENZOLATE BROMIDE] | > 1000
Cc1ccccc1OCC(O)CO (stereo not given) [MEPHENESIN] | > 1000
CCC1(c2ccccc2)NC(=O)N(C)C1=O (stereo not given) [MEPHENYTOIN] | > 1000
Cc1cc2c(OCC(O)CNC(C)C)cccc2[nH]1 (stereo not given) [MEPINDOLOL] | 35.9 to 36
CCCNC(C)(C)COC(=O)c1ccccc1 [MEPRYLCAINE] | > 1000
C[C@H](N)[C@H](O)c1cccc(O)c1 [METARAMINOL] | > 1000
CN1C[C@H](CNC(=O)OCc2ccccc2)C[C@@H]2c3cccc4c3c(cn4C)C[C@H]21 [METERGOLINE] | < 10
COc1ccccc1OCC(O)COC(N)=O (stereo not given) [METHOCARBAMOL] | > 1000
COc1ccc(OC)c(C(O)C(C)N)c1 (stereo not given) [METHOXAMINE] | > 1000
C[C@H]1C[C@@H]2[C@H]([C@@H](O)C[C@@]3(C)[C@H]2CC[C@]3(O)C(=O)CO)[C@@]2(C)C=CC(=O)C=C12 [METHYLPREDNISOLONE] | 33
CC(CN(C)C)CN1c2ccccc2Sc2ccccc21 (stereo not given) [METHYLPROMAZINE] | 73.7
Cc1cc(=O)[nH]c(=S)[nH]1 [METHYLTHIOURACIL] | > 1000
CC[C@@H](CO)NC(=O)[C@@H]1C=C2c3cccc4c3c(cn4C)C[C@H]2N(C)C1 [METHYSERGIDE] | 33.1
CC(=O)Nc1c(I)c(C(=O)N[C@H]2C(O)O[C@H](CO)[C@@H](O)[C@@H]2O)c(I)c(N(C)C(C)=O)c1I (stereo not given in full) [METRIZAMIDE] | > 1000
CC(C)(C(=O)c1cccnc1)c1cccnc1 [METYRAPONE] | 229
CN1CCN2c3ccccc3Cc3ccccc3C2C1 (stereo not given) [MIANSERIN] | 46.8 to 47
Clc1ccc(COC(Cn2ccnc2)c2ccc(Cl)cc2Cl)c(Cl)c1 (stereo not given) [MICONAZOLE] | < 10

Structure (SMILES) | IC50 [µM]
CCCc1c2nc(C(=O)O)cc(NC)c2cc2c(=O)cc(C(=O)O)oc12 [MINOCROMIL] | > 1000
Clc1ccc(C(c2ccccc2Cl)C(Cl)Cl)cc1 (stereo not given) [MITOTANE] | < 10
COc1c(N2C[C@@H]3CCCN[C@@H]3C2)c(F)cc2c(=O)c(C(=O)O)cn(C3CC3)c12 [MOXIFLOXACIN] | > 1000
CC(C)(C)NCC(O)COc1cccc2c1CC(O)C(O)C2 (stereo not given) [NADOLOL] | > 1000
CCN(CC)CCOC(=O)C(Cc1cccc2ccccc12)CC1CCCO1 (stereo not given) [NAFRONYL] | < 11
COc1ccccc1N1CCN(CC(O)COc2cccc3ccccc23)CC1 (stereo not given) [NAFTOPIDIL] | < 10
C=CCN1CC[C@]23c4c5ccc(O)c4O[C@H]2C(=O)CC[C@@]3(O)[C@H]1C5 [NALOXONE] | 549
O=C1CC[C@@]2(O)[C@H]3Cc4ccc(O)c5c4[C@@]2(CCN3CC2CC2)[C@H]1O5 [NALTREXONE] | > 1000
c1ccc2c(CC3=NCCN3)cccc2c1 [NAPHAZOLINE] | > 1000
COc1ccc2cc([C@H](C)C(=O)O)ccc2c1 [NAPROXEN] | > 1000
CC[C@@H](Nc1c(Nc2cccc(C(=O)N(C)C)c2O)c(=O)c1=O)c1ccc(C)o1 [NAVARIXIN ANHYDROUS] | < 10
CCCc1c2oc(C(=O)O)cc(=O)c2cc2c(=O)cc(C(=O)O)n(CC)c12 [NEDOCROMIL] | > 1000
CCc1nn(CCCN2CCN(c3cccc(Cl)c3)CC2)c(=O)n1CCOc1ccccc1 [NEFAZODONE] | < 10
O=c1ncn2nc(Sc3ccc(F)cc3F)ccc2c1-c1c(Cl)cccc1Cl [NEFLAMAPIMOD] | < 10
CN(C)C(=O)Oc1cccc([N+](C)(C)C)c1 [NEOSTIGMINE] | > 1000
Cc1ccnc2c1NC(=O)c1cccnc1N2C1CC1 [NEVIRAPINE] | 295
COC(=O)C1=C(C)NC(C)=C(C(=O)OCCN(C)Cc2ccccc2)C1c1cccc([N+](=O)[O-])c1 (stereo not given) [NICARDIPINE] | < 10
CN1CCC[C@H]1c1cccnc1 [NICOTINE] | > 1000
COC(=O)C1=C(C)NC(C)=C(C(=O)OC)C1c1ccccc1[N+](=O)[O-] [NIFEDIPINE] | 18.7
COC(=O)C1=C(C#N)NC(C)=C(C(=O)OC(C)C)C1c1cccc([N+](=O)[O-])c1 (stereo not given) [NILVADIPINE] | < 10
NC(=O)c1cc([N+](=O)[O-])cc([N+](=O)[O-])c1 [NITROMIDE] | 185
CC(CCc1ccccc1)NC(C)C(O)c1ccc(O)cc1 (stereo not given) [NYLIDRIN] | 280
CC1COc2c(N3CCN(C)CC3)c(F)cc3c(=O)c(C(=O)O)cn1c23 (stereo not given) [OFLOXACIN] | > 1000
